Reference: paper PMC10603063, “A quantitative method for determination of colistin E2 methanesulphonate in human plasma by ^15N-labeled colistin E2” (Scientific Reports, 2023)
Where two headings read alike, the source gives them in different places. Peptide text beside a SMILES is read from it.

Key:
[1] = for long-term storage stability: colistin E2-spiked samples, at least 93 days
Method: (§1) Referring to Zhou et al.[10], for each plasma sample, 100 µL of 5% ammonia was added to a mixture containing 100 µL of CMS E2 calibration plasma standards or QCs and 20 µL of 15 µg/ml IS solution. After vortexing, the mixtures were loaded onto WCX SPE plates. Before loading the sample, the WCX SPE plates were preconditioned with 1 ml methanol followed by 1 mL water to activate the extraction. The plate was sequentially washed with 1 mL of water, 1 mL of methanol, 1 mL of 70% ACN with 2% ammonia, and 1 ml 0.5% FA. Subsequently, 300 µL of 70% ACN with 6% FA was used to elute the analytes twice. Total eluents (600 µL) were collected with an SPE 96-Deep Square Well collection plate, mixed in a 96-well plate mixer, and analyzed by UHPLC-MS/MS.
(§2) The stability of colistin E2 was evaluated at two levels (low and high QCs).
(§3) The hydrolysis of CMS E2 is temperature dependent; the lower the temperature, the slower the hydrolysis rate. The samples were processed in ice water. Therefore, we studied their stability in ice-water. In the presence of CMS E2 (the spiked concentration was 50 times the concentration of colistin, which can cover the clinical samples), the stability of colistin E2 was also evaluated under the following conditions: on the bench top in ice water for 21 h, four freeze–thaw cycles, storage at − 20 ℃ and − 80 ℃ (at least 98 days), and storage of extracts at 4 ℃ in an auto-sampler for 22.5 h.
The method was used for the stability study, and all the following medicinal solutions and plasma samples were prepared and used in an ice water bath and stored at -20 °C after use.
2.6.4 Preparation of plasma quality control sample QC_mix for CMS E2/Colistin E2

[2] = system: Bordetella bronchitica ATCC4617; assay: Cylinder-plate potency method of the United States pharmacopoeia; format: cell-based
From the text: In addition to at least 30 minor polymyxins with very similar physiochemical properties, colistin consists of colistin E1 and colistin E2 (Fig. 1)[6]. According to European Pharmacopoeia records, the components with the same molecular weight as colistin E1 are colistin E1-7MOA and E1-I, and colistin E2 is colistin E3, E2-I, and E1-Nva. In short, except for the principal components colistin E1 and E2, other components with similar physicochemical properties account for nearly 20% of colistin. These components could not be separated from colistin E1/E2 using mobile phases containing formic acid but were identified as a single peak of polymyxin E1/E2 by HPLC. This neglected problem actually brings some interferes with single component or colistin quantification. In the process of developing CMS, we successfully purified single components of colistin E1 and E2 with a purity of more than 99% by preparative HPLC using a specific salt mobile phase.

[3] = Method: as §1, §2, §3
[4] = remark: listed apart in the source
Method: as §2
as §3, with “[…],” for “on the bench top in ice water for 21 h,”

[5] = stock solution in methanol: water (1: 1)
Method: as §2
The standard curve stock solution and the quality control stock solution for colistin E2 need to be prepared from different weighing. All solutions were kept at -20°C.
The colistin E2 reference was accurately weighed and dissolved with an appropriate amount of methanol: water (1: 1) to prepare a stock solution SS-A with a concentration of 3 mg/mL.

| Molecule | benchtop stability ([1]; colistin E2-spiked plasma, low and high QCs, without CMS E2, bench top in ice water for 24 h) | freeze–thaw stability ([1]; colistin E2-spiked plasma, low and high QCs, without CMS E2, four freeze–thaw cycles) | long-term storage stability ([1]; low and high QCs, −20 ℃) | long-term storage stability ([1]; low and high QCs, −80 ℃) | %Change, benchtop stability ([1]; human plasma (EDTA-K2) spiked with CMS E2 (50 times colistin concentration; QC_mix 24/0.48 µg/mL), 21 h in ice water, UHPLC-MS/MS) | %Change, long-term stability ([1]; human plasma spiked with CMS E2, 41 d in freezer (−20℃), UHPLC-MS/MS) | antibacterial activity (comparison of purified single components) ([2]; single components purified to more than 99% by preparative HPLC) | duration of stability in the auto-sampler ([3]; extracts after WCX SPE removal of CMS E2, auto-sampler (4℃)) | stability of extracts ([3]; extracts at 4 ℃ in an auto-sampler for 65.5 h, without CMS E2) | %Change, processed sample stability ([3]; sample extracts of matrix spiked with CMS E2, 22.5 h in an auto-sampler (4℃), UHPLC-MS/MS) | percentage of change in blood spiked with CMS E2 ([4]; blood spiked with CMS E2, ice water for 60 min) | stability in fresh whole blood ([4]; fresh whole blood (EDTA-K2), bench top in ice water for 66 min, without CMS E2) | stability of stock solutions ([5]; stored at ambient for 21 h) | stability of stock solutions, long-term ([5]; −20 ℃ for at least 97 days) | potency ([2]; cylinder-plate method, United States pharmacopoeia, test bacteria Bordetella bronchitica ATCC4617) |
| --- | --- | --- | --- | --- | --- | --- | --- | --- | --- | --- | --- | --- | --- | --- | --- |
| CC(C)CCCCC(=O)N[C@@H](CCN)C(=O)N[C@H](C(=O)N[C@@H](CCN)C(=O)N[C@H]1CCNC(=O)[C@H]([C@@H](C)O)NC(=O)[C@H](CCN)NC(=O)[C@H](CCN)NC(=O)[C@H](CC(C)C)NC(=O)[C@@H](CC(C)C)NC(=O)[C@H](CCN)NC1=O)[C@@H](C)O [colistin E2] (HELM PEPTIDE1{[CC(C)CCCCC(=O)[*:2]].[Dab].T.[Dab].[Dab].[Dab].[dL].L.[Dab].[Dab].T}$PEPTIDE1,PEPTIDE1,5:R3-11:R2$$$V2.0) | no degradation | no degradation | no degradation | no degradation | 2.0% | 1.3% | higher than that of E1 | at least 22.5 h | no degradation | 4.4% | less than 15% | no degradation | no degradation | no degradation | – |
| colistin E2 methanesulphonate [CMS E2] | – | – | – | – | – | – | – | – | – | – | – | – | – | – | 611 µg/mg |
